Measured values taken from patent publication US12344623B2, “Thiazolopyridine derivatives as adenosine receptor antagonists” (Merck Patent GmbH, priority 2019, dated 2025).

Assays:
Format in all cases: cell-based
mouse Pan T cells [1] = assay: mTcell assay, cAMP, agonist NECA; settings: mouse Pan T cells, agonist NECA 1 uM
Outline: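 Mouse splenic Pan T cells, pre-activated 48 hours with anti-CD3/CD28 beads, then plated at 50,000 cells/well in serum-free medium with 0.1% BSA. Compounds tested in 10-point dose response from 10 uM; after 30 minutes at 37° C, cAMP measured by HTRF.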

mouse Pan T cells [2] = assay: mTcell assay, IL-2, rescue of cytokine secretion, agonist NECA; settings: mouse Pan T cells, CD3/CD28 activated, NECA 1 μM, IL-2 rescue, 24 h
From the text: Adenosine (Ado) in tumor microenvironment can inhibit T cell activity by signaling through A2A receptors and suppress cytokine secretion by T cells. […] Potential A2A antagonists or A2A/A2B dual antagonists can rescue T cells from this inhibition. Herein, we describe the in vitro system we established using Pan T cells from mouse spleens to screen potential A2A antagonists or A2A/A2B dual antagonists for their activity. The method described involves the use of CD3/CD28 pre-coated beads to stimulate Pan T cells purified from mouse splenocytes, combined with the addition of A2A agonist along with potential A2A or A2A/A2B dual antagonists to evaluate potentiation of T cell cytokine production.
Briefly, mouse Pan T cells are purified from spleens of BALB/c mice using Pan T cell isolation kit Mouse II (MACS Miltenyi biotech Cat # Order no. 130-095-130) according to manufacturer's protocol. The purified T cells are seeded in Nunc™ 96-Well Polystyrene Round Bottom Microwell Plates in RPMI medium with 10% heat inactivated fetal bovine serum. The cells are rested at 37° C. for 1 h before activating with CD3/CD28 pre-coated beads (Dynabeads™ Mouse T-Activator CD3/CD28; Cat #11456D). After 30 min the cells are treated with varying doses of test antagonist(s). […] After 24 h incubation IL-2 levels in the supernatants are measured by ELISAs according to manufacturer's protocol (R&D systems Cat #DY402 (IL-2)). Once the concentrations are calculated, the difference of cytokine concentration of DMSO control and agonist alone control is calculated and the percentage of rescue by each concentration of antagonist is calculated by using Microsoft Excel. These percentages of cytokine rescue in a dose dependent manner of antagonist is plotted in GraphPad Prism software and IC50 is calculated.

human A2A receptor = human A2A receptor (Homo sapiens, UniProt P29274); assay: Functional A2A receptor activity, recombinant HEK293 cells, cAMP (HTRF), agonist NECA; parameters: expressed in transfected cells; host or cells: HEK293; settings: read-out: Functional A2A receptor activity, HEK293, cAMP, IC50
Outline: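 Intracellular cAMP, the adenosine receptor second messenger, is measured by HTRF following 30 min co-incubation with forskolin, agonist and test compound. Normalization uses DMSO as the neutral control and an inhibitor as the reference control. Fitted curves yield the values.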

Chain of human A2A receptor (P29274 whole entry): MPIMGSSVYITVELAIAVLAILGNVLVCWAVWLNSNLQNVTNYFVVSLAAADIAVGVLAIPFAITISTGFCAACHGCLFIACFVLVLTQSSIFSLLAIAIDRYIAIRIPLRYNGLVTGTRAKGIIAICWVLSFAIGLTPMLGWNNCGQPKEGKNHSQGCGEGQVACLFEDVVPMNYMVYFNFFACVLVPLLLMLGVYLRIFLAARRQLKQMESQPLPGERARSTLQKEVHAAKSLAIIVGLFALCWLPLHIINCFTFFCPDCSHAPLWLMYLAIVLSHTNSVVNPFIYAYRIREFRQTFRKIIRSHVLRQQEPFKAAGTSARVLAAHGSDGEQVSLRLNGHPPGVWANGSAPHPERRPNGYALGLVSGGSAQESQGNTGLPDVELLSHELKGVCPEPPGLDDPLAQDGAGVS

IC50 (mouse Pan T cells [1]): < 10 nM | IC50 (mouse Pan T cells [2]): < 10 nM | IC50 (human A2A receptor): < 10 nM
Compound: COc1ncc(C2=CCOCC2)c2sc(NC(=O)N3CC[C@@]4(CCCOC4)C3)nc12 [Compound 25, (S)-7-Oxa-2-aza-spiro[4.5]decane-2-carboxylic acid [7-(3,6-dihydro-2H-pyran-4-yl)-4-methoxy-thiazolo[4,5-c]pyridin-2-yl]-amide]
